The source of these data is US6841519B1, “Isoxazoline derivatives and herbicides containing the same as the active ingredient” (Kumiai Chemical Industry Co., Ltd., priority 1999, dated 2005).

Type in all cases: in vivo
Test [1] concerns Echinochloa oryzicola Vasing. (Eo). The experiment in a line: Test for herbicidal effect by paddy field soil treatment (Test Example 1). The following applies: application amount (active ingredient) 100 g/10 a, examined at the 21st day from the treatment, index per Table 40. An outline of the steps:
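Eo seeds sown in puddled paddy soil under 3 cm water; next day a water-diluted wettable powder was dropped onto the water surface at 100 g active ingredient per 10 ares. Herbicidal effect scored on a standard scale 21 days after treatment, greenhouse-grown.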

Test [2] has as its system Echinochloa crus-galli (L.) Beauv. var. crusgall (Ec). The experiment in a line: Test for herbicidal effect by upland field soil treatment (Test Example 2), Ec. The following applies: 100 g/10 a active ingredient, examined at 21st day. The gist of the method:
(§1)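 Echinochloa crus-galli and Setaria viridis were sown in upland field soil and covered, then the soil surface was sprayed with water-diluted wettable powder at 100 g active ingredient per 10 ares (100 liters per 10 ares). Plants were grown in a greenhouse and scored on a standard scale on day 21.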

Test [3] concerns Setaria viridis (L.) Beauv. (Se). Kind of test: Test for herbicidal effect by upland field soil treatment (Test Example 2), Se. Particulars: 100 g/10 a active ingredient, examined at 21st day. An outline of the steps:
as §1

Test [4] deals with Echinochloa crus-galli (L.) Beauv. var. crusgalli (Ec). Kind of test: Test for herbicidal effect by upland foliage treatment (Test Example 3). Particulars: 100 g/10 a active ingredient, examined at 14th day. An outline of the steps: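 Potted upland-soil Ec seedlings grown 2 weeks in greenhouse, then foliage-sprayed with water-diluted wettable powder at 100 L per 10 ares, giving 100 g active ingredient per 10 ares. Herbicidal effect scored on a graded standard 14 days after treatment.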

For `COc1cccc(Cl)c1CS(=O)(=O)C1=NOC(C)(C)C1` [Compound 1-563], the “Herbicidal effect to Eo” value in test [1] was 5 (A herbicidal effect or phytotoxicity of 90% or more). Besides, the entries for the “Herbicidal effect to Ec” value in test [2] and in test [4] were 5 (A herbicidal effect or phytotoxicity of 90% or more) and 4 (A herbicidal effect or phytotoxicity of 70% to less than 90%), respectively. In test [3], the “Herbicidal effect to Se” value is on record as 5 (A herbicidal effect or phytotoxicity of 90% or more).
Take `CCOc1cccc(Cl)c1CS(=O)(=O)C1=NOC(C)(C)C1` [Compound 1-564]: the “Herbicidal effect to Eo” value in test [1] is on record as 5 (A herbicidal effect or phytotoxicity of 90% or more). Besides, the “Herbicidal effect to Ec” value is given as 5 (A herbicidal effect or phytotoxicity of 90% or more) in test [2] and 4 (A herbicidal effect or phytotoxicity of 70% to less than 90%) in test [4]. Also, in test [3], the “Herbicidal effect to Se” value is given as 5 (A herbicidal effect or phytotoxicity of 90% or more).
For the molecule `CCCOc1cccc(Cl)c1CS(=O)(=O)C1=NOC(C)(C)C1` [Compound 1-565], the “Herbicidal effect to Eo” value in test [1] was 5 (A herbicidal effect or phytotoxicity of 90% or more). The “Herbicidal effect to Ec” value in test [2] is reported as 5 (A herbicidal effect or phytotoxicity of 90% or more); in test [4], 4 (A herbicidal effect or phytotoxicity of 70% to less than 90%). Moreover, the “Herbicidal effect to Se” value in test [3] is reported as 5 (A herbicidal effect or phytotoxicity of 90% or more).
With `CC(C)Oc1cccc(Cl)c1CS(=O)(=O)C1=NOC(C)(C)C1` [Compound 1-566], the “Herbicidal effect to Eo” value in test [1] was 5 (A herbicidal effect or phytotoxicity of 90% or more). In addition, the “Herbicidal effect to Ec” value in test [2] is reported as 5 (A herbicidal effect or phytotoxicity of 90% or more); in test [4], 4 (A herbicidal effect or phytotoxicity of 70% to less than 90%). The “Herbicidal effect to Se” value in test [3] is given as 5 (A herbicidal effect or phytotoxicity of 90% or more).
As for `CCCCOc1ccccc1CS(=O)(=O)C1=NOC(C)(C)C1` [Compound 1-568], in test [1], the “Herbicidal effect to Eo” value is 5 (A herbicidal effect or phytotoxicity of 90% or more). Also, the “Herbicidal effect to Ec” value in test [2] and in test [4] was 5 (A herbicidal effect or phytotoxicity of 90% or more) each time. In addition, the “Herbicidal effect to Se” value in test [3] is reported as 5 (A herbicidal effect or phytotoxicity of 90% or more).
Take `CCCOc1cccc(F)c1CS(=O)(=O)C1=NOC(C)(C)C1` [Compound 1-569]: the “Herbicidal effect to Eo” value in test [1] was 5 (A herbicidal effect or phytotoxicity of 90% or more). The “Herbicidal effect to Ec” value in test [2] and in test [4] was 5 (A herbicidal effect or phytotoxicity of 90% or more) each time. Further, in test [3], the “Herbicidal effect to Se” value is on record as 5 (A herbicidal effect or phytotoxicity of 90% or more).
For the molecule `CC(C)Oc1cccc(F)c1CS(=O)(=O)C1=NOC(C)(C)C1` [Compound 1-570], the “Herbicidal effect to Eo” value in test [1] is recorded as 5 (A herbicidal effect or phytotoxicity of 90% or more). Moreover, the “Herbicidal effect to Ec” value in test [2] and in test [4] was 5 (A herbicidal effect or phytotoxicity of 90% or more) throughout. The “Herbicidal effect to Se” value in test [3] is 5 (A herbicidal effect or phytotoxicity of 90% or more).
With `CC(C)COc1cccc(Cl)c1CS(=O)(=O)C1=NOC(C)(C)C1` [Compound 1-572], the “Herbicidal effect to Eo” value in test [1] was 5 (A herbicidal effect or phytotoxicity of 90% or more). Further, the “Herbicidal effect to Ec” value in test [2] is given as 5 (A herbicidal effect or phytotoxicity of 90% or more); in test [4], 4 (A herbicidal effect or phytotoxicity of 70% to less than 90%). Moreover, the “Herbicidal effect to Se” value in test [3] is recorded as 5 (A herbicidal effect or phytotoxicity of 90% or more).
As to `C#CCOc1cccc(F)c1CS(=O)(=O)C1=NOC(C)(C)C1` [Compound 1-576], in test [1], the “Herbicidal effect to Eo” value is reported as 5 (A herbicidal effect or phytotoxicity of 90% or more). Further, the “Herbicidal effect to Ec” value in test [2] and in test [4] was 5 (A herbicidal effect or phytotoxicity of 90% or more) in each case. In addition, the “Herbicidal effect to Se” value in test [3] is 5 (A herbicidal effect or phytotoxicity of 90% or more).
